Test results: patent US20250064990A1, “METHODS OF SCREENING FOR VMAT2 INHIBITORS” (Neurocrine Biosciences, Inc., priority 2021, published 2025)

Molecular target: VMAT2 (Homo sapiens, UniProt Q05940)
Assay: VMAT2 target occupancy of single oral doses of NBI-750142 in healthy adult male subjects, [^18F]AV-133 PET
Assay type: in vivo
Parameters: from tissue; host or cells: brain (caudate, putamen, midbrain) of living healthy adult male subjects
Conditions: for NBI-750142 T1 Occ / [^18F]AV-133 BPND T1: T1 ([…] post dose); for NBI-750142 T2 Occ / [^18F]AV-133 BPND T2: T2 (18 h post dose)
Description: This study was conducted to evaluate the brain penetration and target engagement of VMAT2 after single oral doses of NBI-750142 in healthy subjects. This PET study assessed the engagement of NBI-750142 with VMAT2 in vivo at two time-points after dosing. A sequential-cohort design allowed for the safety, target-occupancy, and available pharmacokinetic (PK) data from each prior cohort to be evaluated before selection of the dose level for the next cohort. A range of NBI-750142 doses (max. 200 mg) were studied to explore the relationship between NBI-750142 plasma concentrations and engagement of VMAT2 in selected brain regions.
This was a Phase 1 single-center, open-label, single-dose, target occupancy study of NBI-750142 in up to 12 healthy male subjects using [^18F]AV-133 PET imaging. […] A total of 12 subjects completed the study. Subjects enrolled in the study were required to report to the clinical research site for 4 separate occasions, detailed below.
Two subjects were initially enrolled in each dose cohort. Each subject received one brain structural magnetic resonance imaging (MRI) scan during screening and up to 3 [^18F]AV-133 PET scans (1 baseline and up to 2 follow-up scans after receiving a single dose of NBI-750142). Subjects enrolled in the first cohort received a single dose of 100 mg of NBI-750142 orally on Day 1. PET scans occurred on Day 1 at approximately 1.5 hours post NBI-750142 dose and on Day 2 at approximately 18 hours post NBI-750142 dose. Subjects were then discharged from the study center after all Day 3 procedures and assessments were completed.
Subjects were administered a single dose of [^18F]AV-133 intravenously over 3 minutes using an infusion pump (approximately 3.33 mL per minute) through a venous catheter followed by a 10 mL saline flush. Dynamic PET imaging of the brain was acquired over 120 min following radiotracer injection on a Siemens Biograph 6 PET/CT camera according to the following protocol: • CT scan of the head • [^18F]AV-133 injection (T=0 min) • Emission scan: 6×30 sec, 4×1 min, 4×2 min, 21×5 min (0-120 min)
Reconstructed PET imaging data volumes were transferred to the image processing PMOD software package (PMOD Technologies, Zurich, Switzerland) where the images were motion and decay corrected, realigned onto the subject MRI and subsequently normalized into the standard MNI (Montreal Neurological Institute) space where volumes of interest (VOIs) were defined from a template (see e.g., Hammers et al, Adult brain maximum probability map (“Hammersmith atlas”; n30r83) in MNI space. 2008). The subject MRI was segmented into grey matter, white matter, and CSF maps. Average activity concentration (kBq/cc) within each VOI, constrained to grey matter voxels for cortical regions, were determined and time activity curves (TACs) were generated. TACs were extracted from the following VOIs: caudate and putamen (striatum), midbrain, cerebellar and occipital cortices. TACs and were expressed in standard uptake value (SUV) units (g/mL) by normalizing with the weight of the subject and the injected dose. The occipital cortex was used as a reference region to normalize activity in target regions to generate SUVr images. For visualization, standard uptake value ratio (SUVr) images were computed between 60-120 min. Non-displaceable binding potential (BPND), the primary outcome measure, was estimated with noninvasive Logan graphical analysis (NI-LGA, t*=20 min) in caudate, putamen and midbrain using the occipital cortex as the reference region. Percent measured occupancy (OM) of NBI-750142 (drug) by region was computed according to the Equation 3-1 at each of the post-dose timepoints, T1 (1.5 h post dose) and T2 (18 h post dose).
Post-hoc exploratory analysis applied an Upregulation model (Equation 3-3), in order to account for the apparent ‘negative occupancy’ values observed at T2 (BPND values at T2 were unexpectedly higher than corresponding BPND values at baseline). […]

[1] = Cohort 1, 100 mg, Subject 1, Caudate
[2] = Cohort 1, 100 mg, Subject 1, Midbrain
[3] = Cohort 1, 100 mg, Subject 1, Putamen
[4] = Cohort 1, 100 mg, Subject 2, Caudate
[5] = Cohort 1, 100 mg, Subject 2, Midbrain
[6] = Cohort 1, 100 mg, Subject 2, Putamen
[7] = Cohort 2, 200 mg, Subject 1, Caudate
[8] = Cohort 2, 200 mg, Subject 1, Midbrain
[9] = Cohort 2, 200 mg, Subject 1, Putamen
[10] = Cohort 2, 200 mg, Subject 2, Caudate
[11] = Cohort 2, 200 mg, Subject 2, Midbrain
[12] = Cohort 2, 200 mg, Subject 2, Putamen
[13] = Cohort 3, 60 mg, Subject 1, Caudate
[14] = Cohort 3, 60 mg, Subject 1, Midbrain
[15] = Cohort 3, 60 mg, Subject 1, Putamen
[16] = Cohort 3, 60 mg, Subject 2, Caudate
[17] = Cohort 3, 60 mg, Subject 2, Midbrain
[18] = Cohort 3, 60 mg, Subject 2, Putamen
[19] = Cohort 4, 60 mg, Subject 1, Caudate

VMAT2, sequence (Q05940 whole entry): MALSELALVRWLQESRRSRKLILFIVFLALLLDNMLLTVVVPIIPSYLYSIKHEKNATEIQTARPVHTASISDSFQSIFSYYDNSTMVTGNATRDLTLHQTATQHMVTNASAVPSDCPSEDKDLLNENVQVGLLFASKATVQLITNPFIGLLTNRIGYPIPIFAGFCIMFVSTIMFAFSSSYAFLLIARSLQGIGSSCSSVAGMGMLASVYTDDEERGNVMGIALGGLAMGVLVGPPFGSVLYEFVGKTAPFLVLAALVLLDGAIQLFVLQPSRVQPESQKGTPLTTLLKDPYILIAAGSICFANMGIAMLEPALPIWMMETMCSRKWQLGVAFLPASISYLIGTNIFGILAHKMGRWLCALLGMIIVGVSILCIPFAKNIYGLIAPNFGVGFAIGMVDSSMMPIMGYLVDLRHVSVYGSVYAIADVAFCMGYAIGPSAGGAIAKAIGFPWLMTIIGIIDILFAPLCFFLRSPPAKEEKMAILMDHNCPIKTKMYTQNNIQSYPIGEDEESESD

COc1cc2c(cc1OC)[C@H]1CN(C)[C@H](CC(C)(C)C)CN1CC2 [NBI-750142]
[^18F]AV-133 striatal uptake at T1 vs baseline (10 mg, cohorts 5A and 5B): did not show reduction in uptake | [^18F]AV-133 striatal uptake at T1 vs baseline (60 mg, cohorts 3 and 4): showed variability between subjects | [^18F]AV-133 striatal uptake at T1 vs baseline (100 mg and 200 mg doses, both subjects): markedly reduced uptake | NBI-750142 T1 Occ [1]: 72% | [^18F]AV-133 BPND T1 [1]: 0.34 | NBI-750142 T2 Occ [1]: 3% | [^18F]AV-133 BPND T2 [1]: 1.15 | NBI-750142 T1 Occ [2]: 59% | [^18F]AV-133 BPND T1 [2]: 0.15 | NBI-750142 T2 Occ [2]: 5% | [^18F]AV-133 BPND T2 [2]: 0.34 | NBI-750142 T1 Occ [3]: 54% | [^18F]AV-133 BPND T1 [3]: 0.95 | NBI-750142 T2 Occ [3]: −2% | [^18F]AV-133 BPND T2 [3]: 2.11 | NBI-750142 T1 Occ [4]: 80% | [^18F]AV-133 BPND T1 [4]: 0.38 | NBI-750142 T2 Occ [4]: 15% | [^18F]AV-133 BPND T2 [4]: 1.60 | NBI-750142 T1 Occ [5]: 60% | [^18F]AV-133 BPND T1 [5]: 0.20 | NBI-750142 T2 Occ [5]: 30% | [^18F]AV-133 BPND T2 [5]: 0.36 | NBI-750142 T1 Occ [6]: 73% | [^18F]AV-133 BPND T1 [6]: 0.66 | NBI-750142 T2 Occ [6]: 13% | [^18F]AV-133 BPND T2 [6]: 2.09 | Occupancy at T2 in striatum (Cohort 1 at 100 mg, subject 1, 18 h post dose): 1% | Occupancy at T2 in striatum (Cohort 1 at 100 mg, subject 2, 18 h post dose): 14% | NBI-750142 T1 Occ [7]: 75% | [^18F]AV-133 BPND T1 [7]: 0.40 | NBI-750142 T2 Occ [7]: −30% | [^18F]AV-133 BPND T2 [7]: 2.06 | NBI-750142 T1 Occ [8]: 63% | [^18F]AV-133 BPND T1 [8]: 0.14 | NBI-750142 T2 Occ [8]: −33% | [^18F]AV-133 BPND T2 [8]: 0.49 | NBI-750142 T1 Occ [9]: 69% | [^18F]AV-133 BPND T1 [9]: 0.74 | NBI-750142 T2 Occ [9]: −26% | [^18F]AV-133 BPND T2 [9]: 3.00 | NBI-750142 T1 Occ [10]: 72% | [^18F]AV-133 BPND T1 [10]: 0.51 | NBI-750142 T2 Occ [10]: −7% | [^18F]AV-133 BPND T2 [10]: 1.91 | NBI-750142 T1 Occ [11]: 60% | [^18F]AV-133 BPND T1 [11]: 0.23 | NBI-750142 T2 Occ [11]: 7% | [^18F]AV-133 BPND T2 [11]: 0.53 | NBI-750142 T1 Occ [12]: 67% | [^18F]AV-133 BPND T1 [12]: 0.88 | NBI-750142 T2 Occ [12]: −5% | [^18F]AV-133 BPND T2 [12]: 2.81 | Occupancy at T2 in striatum (Cohort 2 at 200 mg, subject 1, 18 h post dose): −28% | Occupancy at T2 in striatum (Cohort 2 at 200 mg, subject 2, 18 h post dose): −6% | NBI-750142 T1 Occ [13]: 37% | [^18F]AV-133 BPND T1 [13]: 1.04 | NBI-750142 T2 Occ [13]: −15% | [^18F]AV-133 BPND T2 [13]: 1.93 | NBI-750142 T1 Occ [14]: 47% | [^18F]AV-133 BPND T1 [14]: 0.20 | NBI-750142 T2 Occ [14]: −5% | [^18F]AV-133 BPND T2 [14]: 0.39 | NBI-750142 T1 Occ [15]: 34% | [^18F]AV-133 BPND T1 [15]: 1.31 | NBI-750142 T2 Occ [15]: −12% | [^18F]AV-133 BPND T2 [15]: 2.22 | NBI-750142 T1 Occ [16]: 6% | [^18F]AV-133 BPND T1 [16]: 1.62 | NBI-750142 T2 Occ [16]: −20% | [^18F]AV-133 BPND T2 [16]: 2.07 | NBI-750142 T1 Occ [17]: 16% | [^18F]AV-133 BPND T1 [17]: 0.44 | NBI-750142 T2 Occ [17]: −22% | [^18F]AV-133 BPND T2 [17]: 0.64 | NBI-750142 T1 Occ [18]: 3% | [^18F]AV-133 BPND T1 [18]: 2.14 | NBI-750142 T2 Occ [18]: −22% | [^18F]AV-133 BPND T2 [18]: 2.70 | Occupancy at T2 in striatum (Cohort 3 at 60 mg, subject 1, 18 h post dose): −14% | Occupancy at T2 in striatum (Cohort 3 at 60 mg, subject 2, 18 h post dose): −21% | NBI-750142 T1 Occ [19]: 50% | [^18F]AV-133 BPND T1 [19]: 0.78 | NBI-750142 T2 Occ [19]: −8%
